Measured values: the NIST ThermoML archive (doi:10.1021/je060269j)
“And” between values parts separate entries of the source, which are not always exact repeats. Identical values can stand only once.

Conditions: Liquid, Flow apparatus with low residence time

CC(=O)OC(C)(C)C [1,1-dimethylethyl ethanoate]
Conditions | Critical pressure [kPa] | Critical temperature [K] | vapor or sublimation pressure [kPa]
– | 3040 | 541.2 | –
472.7 K | – | – | 1053
495 K | – | – | 1527
514.5 K | – | – | 2074
533.7 K | – | – | 2722
535.7 K | – | – | 2802
535.9 K | – | – | 2801
536.4 K | – | – | 2835
537.3 K | – | – | 2868
537.7 K | – | – | 2903
538.6 K | – | – | 2949

CC(O)CCO (stereo not given) [1,3-butanediol]
Conditions | Critical pressure [kPa] | Critical temperature [K] | vapor or sublimation pressure [kPa]
– | 5180 | 692.4 | –
481.4 K | – | – | 100.2
508.1 K | – | – | 209.6
537.8 K | – | – | 418.5
576 K | – | – | 898.4
614.7 K | – | – | 1719
646.7 K | – | – | 2774
662.5 K | – | – | 3462
676.7 K | – | – | 4158
688.2 K | – | – | 4840

c1cocn1 [1,3-oxazole]
Conditions | Critical pressure [kPa] | Critical temperature [K] | vapor or sublimation pressure [kPa]
– | 6770 | 550.8 | –
479 K | – | – | 2424
494.6 K | – | – | 3116
514.9 K | – | – | 4146
535.5 K | – | – | 5523
547.4 K | – | – | 6492

CC(C)c1ccc(C(C)C)cc1 [1,4-diisopropylbenzene]
Conditions | Critical pressure [kPa] | Critical temperature [K] | vapor or sublimation pressure
– | 2360 | 676.2 | –
518 K | – | – | 217.1 kPa
552.6 K | – | – | 416.3 kPa
596.8 K | – | – | 837.8 kPa
648.1 K | – | – | 1669 kPa and 1667 kPa
666.2 K | – | – | 2078 kPa
672.3 K | – | – | 2258 kPa
675.9 K | – | – | 2325 kPa

CC1(C)CO1 [2,2-dimethyloxirane]
Conditions | Critical pressure [kPa] | Critical temperature [K] | vapor or sublimation pressure [kPa]
– | 4350 | 499.9 | –
320.1 K | – | – | 87.08
339.1 K | – | – | 165.1
365.6 K | – | – | 348.9
393.2 K | – | – | 678.4
428.2 K | – | – | 1381
469.4 K | – | – | 2760
496.4 K | – | – | 4141
499.2 K | – | – | 4306

CSSC [2,3-dithiabutane]
Conditions | Critical pressure [kPa] | Critical temperature [K] | vapor or sublimation pressure [kPa]
– | 5070 | 607.8 | –
466.3 K | – | – | 690
500.8 K | – | – | 1244
533.1 K | – | – | 2002
561 K | – | – | 2897
591.4 K | – | – | 4205
604.8 K | – | – | 4902
607.2 K | – | – | 5037

NCCOCCO [2-(2-aminoethoxy)ethanol]
Conditions | Critical pressure [kPa] | Critical temperature [K] | vapor or sublimation pressure [kPa]
– | 4800 | 721.2 | –
500.9 K | – | – | 117.3
526.9 K | – | – | 225.2
564.9 K | – | – | 496.6
594.2 K | – | – | 842.6
625.9 K | – | – | 1395
653.9 K | – | – | 2085
685 K | – | – | 3130
716.5 K | – | – | 4521
719.4 K | – | – | 4729

OCCCOCCCO [4-oxa-1,7-heptanediol]
Conditions | Critical pressure [kPa] | Critical temperature [K] | vapor or sublimation pressure [kPa]
– | 3380 | 705.2 | –
505 K | – | – | 100.7
534.3 K | – | – | 208.2
564.2 K | – | – | 395.8
607.2 K | – | – | 854.3
649.8 K | – | – | 1631
689.9 K | – | – | 2779
699.1 K | – | – | 3123
703.4 K | – | – | 3296

CCCCSSCCCC [5,6-dithiadecane]
Conditions | vapor or sublimation pressure [kPa]
504.2 K | 90.32
535.7 K | 180.3
571.7 K | 349.6
614.9 K | 695.7

O=CN1CCOCC1 [N-formylmorpholine]
Conditions | Critical pressure [kPa] | Critical temperature [K] | vapor or sublimation pressure [kPa]
– | 5080 | 779.3 | –
507.5 K | – | – | 91.7
538 K | – | – | 174.8
573.2 K | – | – | 343.4
614.6 K | – | – | 688.1
663.6 K | – | – | 1379
664.7 K | – | – | 1382
723.7 K | – | – | 2761
745.2 K | – | – | 3447
762.7 K | – | – | 4137
775.2 K | – | – | 4826
777.7 K | – | – | 4999

CN(CCO)CCO [N-methyldiethanolamine]
Conditions | Critical pressure [kPa] | Critical temperature [K] | vapor or sublimation pressure [kPa]
– | 4160 | 741.9 | –
519.7 K | – | – | 98.59
543.3 K | – | – | 175.1
574.8 K | – | – | 346.1
617.1 K | – | – | 743.9
657.1 K | – | – | 1389
707.5 K | – | – | 2785
728.1 K | – | – | 3475
735.4 K | – | – | 3799
738.4 K | – | – | 3985

C=CC(=O)OCCCC [butyl 2-propenoate]
Conditions | Critical pressure [kPa] | Critical temperature [K] | vapor or sublimation pressure [kPa]
– | 2840 | 601.2 | –
441.9 K | – | – | 178.6
471.9 K | – | – | 351.6
506.5 K | – | – | 689.5
549.3 K | – | – | 1380
599.1 K | – | – | 2761

CCOC(=O)C(=O)OCC [diethyl ethanedioate]
Conditions | Critical pressure [kPa] | Critical temperature [K] | vapor or sublimation pressure [kPa]
– | 3060 | 645.8 | –
454.6 K | – | – | 90.67
481.8 K | – | – | 182.4
512.9 K | – | – | 359.9
547.3 K | – | – | 690.9
590.1 K | – | – | 1381
638.8 K | – | – | 2761
642.5 K | – | – | 2934
644.4 K | – | – | 3013

CC(=O)OC(C)OC(C)=O [ethylidene diethanoate]
Conditions | Critical pressure [kPa] | Critical temperature [K] | vapor or sublimation pressure [kPa]
– | 2970 | 618.2 | –
461.6 K | – | – | 177.6
486.4 K | – | – | 314.3
514.2 K | – | – | 555.5
541.2 K | – | – | 902.2
571.5 K | – | – | 1457
601.1 K | – | – | 2286
608.2 K | – | – | 2561
612 K | – | – | 2697

O=C=Nc1ccccc1 [phenyl isocyanate]
Conditions | Critical pressure [kPa] | Critical temperature [K] | vapor or sublimation pressure [kPa]
– | 4000 | 656.9 | –
479.7 K | – | – | 278.9
553.2 K | – | – | 1038
588.3 K | – | – | 1724
618.6 K | – | – | 2551
653 K | – | – | 3795
653.1 K | – | – | 3793

O=S1(=O)CCCC1 [sulfolane]
Conditions | vapor or sublimation pressure [kPa]
560.2 K | 103.6
594.4 K | 203.9
626.3 K | 350.2
656.3 K | 556.8
685.1 K | 829.2
713.2 K | 1181
742 K | 1665
773.4 K | 2363
802.7 K | 3185
829 K | 4144

O=C1CCCO1 [γ-butyrolactone]
Conditions | Critical pressure [kPa] | Critical temperature [K] | vapor or sublimation pressure [kPa]
– | 5100 | 732.5 | –
474.9 K | – | – | 93.29
501.8 K | – | – | 174.7
532.5 K | – | – | 325.8
562.6 K | – | – | 558.5
600 K | – | – | 1005
639 K | – | – | 1723
673.8 K | – | – | 2643
696.7 K | – | – | 3454
713.8 K | – | – | 4147
726.8 K | – | – | 4779
730.8 K | – | – | 5013
